Structures can show the parent of a compound that is named as a salt. Where two headings read alike, the source gives them in different places.
How the values were obtained:
[1] = test system: nitrite production in human cartilage explants; test: Human cartilage explant assay (IL-1 induced nitrite production); assay type: cell-based; settings: inhibition of nitrite production, IL-1 stimulated explants
Procedure: Human Cartilage Explant Assay
Bone pieces are rinsed twice with Dulbecco's Phosphate Buffered Saline (GibcoBRL) and once with Dulbecco's Modified Eagles Medium (GibcoBRL) and placed into a petri dish with phenol red free Minimum Essential Medium (MEM) (GibcoBRL). Cartilage was cut into small explants of approximately 15-45 mg in weight and one or two explants per well are placed into either 96 or 48 well culture plates with 200-500 μL of culture media per well. The culture media was either a custom modification of Minimum Essential Medium(Eagle) with Earle's salts (GibcoBRL) prepared without L-Arginine, without L-Glutamine and without phenol red or a custom modification of serumless Neuman and Tytell (GibcoBRL) medium prepared without L-arginine, without insulin, without ascorbic acid, without L-glutamine and without phenol red. Both are supplemented before use with 100 μM L-Arginine (Sigma), 2 mM L-glutamine, 1×HL-1 supplement (BioWhittaker), […] ascorbic acid (Sigma) and 150 pg/ml recombinant human IL-1[…] (RD Systems) to induce nitric oxide synthase. Compounds are then added in 10 μL aliquots and the explants incubated at 37° C. with 5% CO2 for 18-24 hours. The day old supernatant is then discarded and replaced with fresh culture media containing recombinant human IL-1 ? and compound and incubated for another 20-24 hours. […] All samples are done in quadruplicate. Unstimulated controls are cultured in media in the absence of recombinant human IL-1[…]. IC50 values (Table I) are determined from plotting the percent inhibition of nitrite production at six different concentrations of inhibitor.

[2] = test system: LPS-induced increase in plasma nitrite/nitrate levels; test: In vivo assay, endotoxin-treated rats; settings: administered orally, plasma nitrite/nitrate 5 hours post-treatment
Procedure: Plasma nitrite/nitrate levels can be determined 5 hours post-treatment.

[3] = molecular target: T1, hiNOS (Homo sapiens, UniProt P35228); test: Assay for time dependent inhibition, hiNOS; assay type: biochemical
T1 construct: made in house; host or cells: Sf9 insect cells, baculovirus vector
Procedure: (§1) Assay for Time Dependent Inhibition
(§2) Aliquots (10 μL) are removed at 0, 10,21 and 60 minutes and immediately added to a citrulline assay enzyme reaction mixture containing L-[2,3-^3H]-arginine and a final L-arginine concentration of 30 μM in a final volume of 100 μL. The reaction is allowed to proceed for 15 minutes at 37° C. and terminated by addition of stop buffer and chromatography with Dowex 50W X-8 cation exchange ion exchange resin as described for the citrulline NOS assay. The % inhibition of NOS activity by an inhibitor was taken as the percent inhibition in activity compared to control enzyme preincubated for the same time in the absence of inhibitor.

[4] = molecular target: T2, hecNOS (Homo sapiens, UniProt P29474); test: Assay for time dependent inhibition, hecNOS; assay type: biochemical
T2 construct: made in house; host or cells: Sf9 insect cells, baculovirus vector
Procedure: as §1, §2

[5] = molecular target: T3, hncNOS (Homo sapiens, UniProt P29475); test: Assay for time dependent inhibition, hncNOS; assay type: biochemical
T3 construct: made in house; host or cells: Sf9 insect cells, baculovirus vector
Procedure: as §1, §2

[6] = molecular target: T4, Human inducible NOS (hiNOS) (Homo sapiens, UniProt P35228); test: Citrulline assay for nitric oxide synthase, hiNOS; assay type: biochemical; settings: averages across all experiments and all lots; 30 μM L-arginine
T4 construct: made in house; host or cells: Sf9 insect cells, baculovirus vector
T4 sequence (P35228 whole entry): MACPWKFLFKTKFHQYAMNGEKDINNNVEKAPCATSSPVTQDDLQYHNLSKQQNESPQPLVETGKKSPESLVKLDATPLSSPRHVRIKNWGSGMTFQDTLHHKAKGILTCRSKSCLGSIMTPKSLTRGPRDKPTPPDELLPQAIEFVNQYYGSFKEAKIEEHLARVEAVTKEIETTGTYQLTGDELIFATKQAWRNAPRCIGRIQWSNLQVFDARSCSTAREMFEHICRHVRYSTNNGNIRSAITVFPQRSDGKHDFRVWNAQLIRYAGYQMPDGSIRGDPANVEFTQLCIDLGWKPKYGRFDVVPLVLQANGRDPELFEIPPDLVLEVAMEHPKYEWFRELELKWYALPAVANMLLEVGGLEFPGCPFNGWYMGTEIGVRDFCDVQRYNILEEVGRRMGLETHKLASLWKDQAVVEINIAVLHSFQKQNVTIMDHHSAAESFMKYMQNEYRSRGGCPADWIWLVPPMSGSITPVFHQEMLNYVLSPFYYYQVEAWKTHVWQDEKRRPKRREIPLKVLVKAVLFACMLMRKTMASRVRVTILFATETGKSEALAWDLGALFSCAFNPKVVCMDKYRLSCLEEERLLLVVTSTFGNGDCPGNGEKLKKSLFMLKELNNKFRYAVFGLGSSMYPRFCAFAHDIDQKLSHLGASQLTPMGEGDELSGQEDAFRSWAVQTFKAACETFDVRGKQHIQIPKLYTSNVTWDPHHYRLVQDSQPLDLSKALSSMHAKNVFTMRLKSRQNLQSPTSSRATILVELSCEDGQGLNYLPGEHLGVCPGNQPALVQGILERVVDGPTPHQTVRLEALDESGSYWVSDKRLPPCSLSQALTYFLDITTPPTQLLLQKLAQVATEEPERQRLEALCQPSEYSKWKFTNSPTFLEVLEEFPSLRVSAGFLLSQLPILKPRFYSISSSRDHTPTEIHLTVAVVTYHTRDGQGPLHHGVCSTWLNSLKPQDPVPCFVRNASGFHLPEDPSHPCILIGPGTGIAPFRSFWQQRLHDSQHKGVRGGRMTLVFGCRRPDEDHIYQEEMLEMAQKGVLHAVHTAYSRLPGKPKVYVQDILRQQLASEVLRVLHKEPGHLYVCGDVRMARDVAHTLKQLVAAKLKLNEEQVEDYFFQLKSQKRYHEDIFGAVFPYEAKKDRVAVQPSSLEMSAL
Procedure: (§3) Citrulline Assay for Nitric Oxide Synthase
(§4) To measure NOS activity, 10 μL of enzyme is added to 40 μL of 50 mM Tris (pH 7.6) in the presence or absence of test compounds and the reaction initiated by the addition of 50 μL of a reaction mixture containing 50 mM Tris (pH 7.6), 2.0 mg/mL bovine serum albumin, 2.0 mM DTT, 4.0 mM CaCl2, 20 μM FAD, 100 μM tetrahydrobiopterin, 0.4 mM NADPH and 60 μL-arginine containing 0.9 μCi of L-[2,3-^3H]-arginine. The final concentration of L-arginine in the assay is 30 μM. For hecNOS or hncNOS, calmodulin is included at a final concentration of 40-100 nM. Following incubation at 37° C. for 15 minutes, the reaction is terminated by addition of 400 μL of a suspension (1 part resin, 3 parts buffer) of Dowex 50W X-8 cation exchange resin in a stop buffer containing 10 mM EGTA, 100 mM HEPES, pH 5.5 and 1 mM L-citrulline. After mixing the resin is allowed to settle and L-[2,3-^3H]-Citrulline formation is determined by counting aliquots of the supernatant with a liquid scintillation counter.

[7] = molecular target: T5, human endothelial constitutive NOS (hecNOS) (Homo sapiens, UniProt P29474); test: Citrulline assay for nitric oxide synthase, hecNOS; assay type: biochemical; settings: averages across all experiments and all lots; 30 μM L-arginine
T5 construct: made in house; host or cells: Sf9 insect cells, baculovirus vector
T5 sequence (P29474 2-1203): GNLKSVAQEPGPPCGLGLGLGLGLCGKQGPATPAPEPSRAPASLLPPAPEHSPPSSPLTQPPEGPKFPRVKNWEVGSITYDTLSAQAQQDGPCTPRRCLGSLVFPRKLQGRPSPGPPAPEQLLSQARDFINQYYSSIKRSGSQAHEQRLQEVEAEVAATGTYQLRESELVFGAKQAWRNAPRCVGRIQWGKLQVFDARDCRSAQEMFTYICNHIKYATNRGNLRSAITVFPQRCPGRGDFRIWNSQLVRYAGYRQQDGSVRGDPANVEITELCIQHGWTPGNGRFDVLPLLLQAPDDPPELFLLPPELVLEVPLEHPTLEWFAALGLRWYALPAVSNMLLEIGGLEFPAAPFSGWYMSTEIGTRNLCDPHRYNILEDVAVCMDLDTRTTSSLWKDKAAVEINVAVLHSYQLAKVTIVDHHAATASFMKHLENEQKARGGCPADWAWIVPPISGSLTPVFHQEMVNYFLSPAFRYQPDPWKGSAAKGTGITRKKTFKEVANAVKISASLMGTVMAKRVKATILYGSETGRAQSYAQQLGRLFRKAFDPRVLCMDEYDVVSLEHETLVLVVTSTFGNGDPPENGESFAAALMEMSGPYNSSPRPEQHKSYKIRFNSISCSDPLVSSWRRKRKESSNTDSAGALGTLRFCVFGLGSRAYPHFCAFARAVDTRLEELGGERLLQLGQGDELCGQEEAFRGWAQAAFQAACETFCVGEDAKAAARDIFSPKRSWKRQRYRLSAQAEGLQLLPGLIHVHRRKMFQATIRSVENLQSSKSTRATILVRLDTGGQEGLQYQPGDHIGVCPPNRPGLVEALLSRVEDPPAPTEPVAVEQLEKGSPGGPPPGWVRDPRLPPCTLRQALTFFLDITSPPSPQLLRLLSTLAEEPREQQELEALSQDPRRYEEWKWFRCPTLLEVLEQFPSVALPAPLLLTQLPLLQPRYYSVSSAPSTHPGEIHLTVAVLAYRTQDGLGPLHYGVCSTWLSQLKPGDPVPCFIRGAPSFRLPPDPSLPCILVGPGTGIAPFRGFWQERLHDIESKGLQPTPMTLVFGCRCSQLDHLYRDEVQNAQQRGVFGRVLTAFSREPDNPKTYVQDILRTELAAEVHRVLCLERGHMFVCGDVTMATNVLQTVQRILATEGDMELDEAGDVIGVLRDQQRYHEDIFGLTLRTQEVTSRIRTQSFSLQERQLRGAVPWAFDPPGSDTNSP
Procedure: as §3, §4

[8] = molecular target: T6, human neuronal constitutive NOS (hncNOS) (Homo sapiens, UniProt P29475); test: Citrulline assay for nitric oxide synthase, hncNOS; assay type: biochemical; settings: averages across all experiments and all lots; 30 μM L-arginine
T6 construct: made in house; host or cells: Sf9 insect cells, baculovirus vector
T6 sequence (P29475 whole entry): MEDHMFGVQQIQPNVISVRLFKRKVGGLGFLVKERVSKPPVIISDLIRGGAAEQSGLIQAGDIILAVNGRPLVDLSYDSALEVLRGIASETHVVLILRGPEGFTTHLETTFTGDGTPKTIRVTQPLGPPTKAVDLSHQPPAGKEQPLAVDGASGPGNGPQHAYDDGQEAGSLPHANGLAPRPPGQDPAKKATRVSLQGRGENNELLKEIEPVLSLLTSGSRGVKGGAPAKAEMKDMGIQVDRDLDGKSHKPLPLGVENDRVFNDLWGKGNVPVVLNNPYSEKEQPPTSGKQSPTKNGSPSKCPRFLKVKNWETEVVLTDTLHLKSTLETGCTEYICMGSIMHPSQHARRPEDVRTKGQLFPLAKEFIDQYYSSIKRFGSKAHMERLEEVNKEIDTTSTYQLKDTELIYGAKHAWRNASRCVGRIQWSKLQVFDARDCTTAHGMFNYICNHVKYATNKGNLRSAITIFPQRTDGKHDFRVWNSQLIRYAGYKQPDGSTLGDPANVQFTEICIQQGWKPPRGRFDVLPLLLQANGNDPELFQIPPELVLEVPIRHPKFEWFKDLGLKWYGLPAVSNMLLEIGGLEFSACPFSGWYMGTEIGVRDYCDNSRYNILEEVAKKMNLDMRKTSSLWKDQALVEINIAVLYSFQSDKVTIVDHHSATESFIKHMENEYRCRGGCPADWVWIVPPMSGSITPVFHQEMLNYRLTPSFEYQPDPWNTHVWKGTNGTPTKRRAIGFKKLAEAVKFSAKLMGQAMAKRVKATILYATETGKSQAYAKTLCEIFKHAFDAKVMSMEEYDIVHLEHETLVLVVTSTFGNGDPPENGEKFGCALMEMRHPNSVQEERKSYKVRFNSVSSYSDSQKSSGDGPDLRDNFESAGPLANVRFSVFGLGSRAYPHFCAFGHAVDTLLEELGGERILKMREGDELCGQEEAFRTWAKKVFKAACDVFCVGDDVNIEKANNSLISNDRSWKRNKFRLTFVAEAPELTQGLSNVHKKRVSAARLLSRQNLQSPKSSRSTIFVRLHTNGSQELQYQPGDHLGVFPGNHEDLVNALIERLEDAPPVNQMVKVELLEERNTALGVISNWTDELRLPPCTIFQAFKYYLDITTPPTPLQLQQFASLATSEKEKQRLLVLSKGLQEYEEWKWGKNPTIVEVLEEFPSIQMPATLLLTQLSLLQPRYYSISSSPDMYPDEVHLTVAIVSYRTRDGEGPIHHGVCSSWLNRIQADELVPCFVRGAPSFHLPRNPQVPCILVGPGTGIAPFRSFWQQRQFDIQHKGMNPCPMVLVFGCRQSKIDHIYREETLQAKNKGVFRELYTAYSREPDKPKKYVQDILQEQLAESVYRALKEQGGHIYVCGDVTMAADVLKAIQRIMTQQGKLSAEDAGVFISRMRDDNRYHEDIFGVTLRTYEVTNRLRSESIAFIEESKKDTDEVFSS
Procedure: as §3, §4

[9] = test system: retinal ganglion cells; settings: rats with chronic moderately elevated IOP; cited from earlier work
[10] = Rattus norvegicus, po, read-out: ED50

Row | Compound | IC50 ([1]; Homo sapiens) | ED50 [2, 10] | IC50 [6] | IC50 [7] | IC50 [8] | also measured
1 | COC[C@](N)(CSCCNC(C)=N)C(=O)O [Example J, 2-[[[2-1(1-Iminoethyl)amino]ethyl]thiolmethyl]-O-methyl-D-serine, Dihydrochloride] | – | – | – | – | – | IC50 [1]: 8.2 µM
2 | N=C1CCCC[C@@H](CCCC[C@H](N)C(=O)O)N1 [Example W, ([…]S,2R)-[…]-aminohexahydro-7-imino-1H-azepine-2-hexanoic Acid, Trihydrate Hydrochloride] | > 30 µM | > 10 mg/kg | – | – | – | inhibition at 4.2 µM ([3]; 21 min preincubation): 34%; inhibition at 4.2 µM ([3]; 60 min preincubation): 38%; inhibition at 173 µM ([4]; 21 min preincubation): 9%; inhibition at 173 µM ([4]; 60 min preincubation): 0%; inhibition at 13 µM ([5]; 13 μM, 21 min preincubation): 0%
3 | CC(=N)NC/C=C/CC(C)(N)C(=O)O (stereo not shown) [Example CC, (E)-2-amino-2-methyl-6-[(1-iminoethyl)amino]-4-hexenoic Acid, Dihydrochloride] | 0.5 µM | < 3 mg/kg | 2.9 µM | 29 µM | 9.9 µM | –
4 | CC(=N)NC/C=C\CC[C@@](C)(N)C(=O)O [Example MM, (2R,5Z)-2-amino-2-methyl-7-[(1-iminoethyl)amino]-5-heptenoic Acid, Dihydrochloride] | – | – | 121 µM | 1930 µM | 1480 µM | –
5 | N=C(N)NN [aminoguanidine] | – | – | – | – | – | loss of retinal ganglion cells [9]: blocks loss of retinal ganglion cells
6 | CC(=N)NC/C(F)=C\CCC(C)(N)C(=O)O (racemic) [Example KK, (2R/S,5E)-2-amino-2-methyl-6-fluoro-7-[(1-iminoethyl)amino]-5-heptenoic Acid, Dihydrochloride] | – | 0.3 mg/kg | 0.57 µM | 52 µM | 13 µM | –
7 | CC(=N)NC/C(F)=C\CC[C@@](C)(N)C(=O)O [Example JJ, (2R,5E)-2-amino-2-methyl-6-fluoro-7-[(1-iminoethyl)amino]-5-heptenoic Acid, Dihydrochloride] | – | – | 56 µM | 352 µM | 584 µM | –
8 | N=C1CCCC[C@H](C/C=C\C[C@H](N)C(=O)O)N1 [Example AA, (2S,4Z)-2-amino-6-[(2R)-hexahydro-7-imino-1H-azepin-2-yl]-4-hexenoic Acid] | < 3 µM | < 10 mg/kg | < 3 µM | > 5 µM | < 3 µM | inhibition at 2.2 µM ([3]; 21 min preincubation): 96%; inhibition at 2.2 µM ([3]; 60 min preincubation): 97%; inhibition at 2.2 µM ([4]; 2.2 μM, 60 min preincubation): 55%; inhibition at 5.7 µM ([4]; 5.7 μM, 21 min preincubation): 58%; inhibition at 0.9 µM ([5]; 21 min preincubation): 34%; inhibition at 0.9 µM ([5]; 60 min preincubation): 0%
9 | CC(=N)NC/C=C\CC[C@](C)(N)C(=O)O.Cl.Cl [Example LL, (2S,5Z)-2-amino-2-methyl-7-[(1-iminoethyl)amino]-5-heptenoic Acid, Dihydrochloride] | 0.8 µM | 0.3 mg/kg | 0.7 µM | 31 µM | 12 µM | –
10 | CC(=N)NC/C=C/C[C@@](C)(N)C(=O)O [Example DD, (R, E)-2-amino-2-methyl-6-[(1-iminoethyl)amino]-4-hexenoic Acid, Dihydrochloride] | 1.8 µM | – | 10 µM | 74 µM | 31 µM | –
11 | CC(=N)NC/C=C\CC[C@H](N)C(=O)O [Example T, (2S,5Z)-2-amino-7-[(1-iminoethyl)amino]-5-heptenoic Acid, Dihydrochloride] | 0.1 µM | – | – | – | – | –
12 | CC(=N)NC/C(F)=C/CC[C@H](N)C(=O)O [Example D, (2S,5Z)-2-amino-6-fluoro-7-[(1-iminoethyl)amino]-5-heptenoic Acid, Trihydrochloride, Dihydrate] | 2.5 µM | > 10 mg/kg | – | – | – | –
13 | CC(=N)NCC#CCC(C)(N)C(=O)O (stereo not shown) [Example FF, 2-amino-2-methyl-6-[(1-iminoethyl)amino]-4-hexynoic Acid, Dihydrochloride] | – | – | 16 µM | 86 µM | 45 µM | –
14 | CC(=N)NC/C(F)=C\CC[C@H](N)C(=O)Nc1nnn[nH]1 [Example H, (2S,5E)-2-amino-6-fluoro-7-[(1-iminoethyl)amino]-N-(1H-tetrazol-5-yl) 5-heptenamide, Dihydrochloride] | – | < 0.3 mg/kg | – | – | – | –
15 | N=C1CCCC[C@H](CCCC[C@H](N)C(=O)O)N1 [Example X, ([…]S,2S)-[…]-aminohexahydro-7-imino-1H-azepine-2-hexanoic Acid, Trihydrate Hydrochloride] | < 10 µM | – | – | – | – | –
16 | N=C1CCCC[C@H](CCCC[C@@H](N)C(=O)O)N1 [Example V, ([…]R,2S)-[…]-aminohexahydro-7-imino-1H-azepine-2-hexanoic Acid, Trihydrate Hydrochloride] | < 10 µM | < 3 mg/kg | – | – | – | –
17 | CC(=N)NC/C=C/C[C@](C)(N)C(=O)O [Example EE, (S, E)-2-amino-2-methyl-6-[(1-iminoethyl)amino]-4-hexenoic Acid, Dihydrochloride] | 0.5 µM | 0.2 mg/kg | 1.4 µM | 18 µM | 5.8 µM | –
18 | CC(=NO)NC/C(F)=C\CC[C@H](N)C(=O)O [Example G, (2S,5E)-2-amino-6-fluoro-7-[(1-hydroximinoethyl)amino]-5-heptenoic Acid] | – | < 0.1 mg/kg | – | – | – | melting point: 198 to 200 °C
19 | N=C1CCCC[C@H](C/C=C/C[C@H](N)C(=O)O)N1 [Example BB, (2S,4E)-2-amino-6-[(2R)-hexahydro-7-imino-1H-azepin-2-yl]-4-hexenoic Acid] | – | – | < 10 µM | > 25 µM | < 10 µM | –
20 | N=C1CCCC[C@H](CCCC[C@H](N)C(=O)O)N1 [Example Z, ([…]S,2S)-[…]-aminohexahydro-7-imino-1H-azepine-2-hexanoic Acid, Trihydrate Hydrochloride] | – | < 5 mg/kg | – | – | – | inhibition at 2.2 µM ([3]; 21 min preincubation): 86%; inhibition at 2.2 µM ([3]; 60 min preincubation): 85%; inhibition at 15 µM ([4]; 21 min preincubation): 18%; inhibition at 15 µM ([4]; 60 min preincubation): 16%; inhibition at 3 µM ([5]; 3 μM, 21 min preincubation): 0%
21 | CC(=N)NCC(F)=CCC[C@H](N)C(=O)O (mixture of isomers) [Example B, (2S,5E/Z)-2-amino-6-fluoro-7-[(1-iminoethyl)amino]-5-heptenoic Acid, Dihydrochloride] | 0.2 µM | – | – | – | – | –
22 | N=C1CCCC[C@H](CCCC[C@@H](N)C(=O)O)N1 [Example Y, ([…]R,2S)-[…]-aminohexahydro-7-imino-1H-azepine-2-hexanoic Acid, Trihydrate Hydrochloride] | – | – | – | – | – | IC50 [1]: < 10 µM; inhibition at 2.8 µM ([3]; 21 min preincubation): 75%; inhibition at 2.8 µM ([3]; 60 min preincubation): 76%; inhibition at 33 µM ([4]; 21 min preincubation): 11%; inhibition at 33 µM ([4]; 60 min preincubation): 11%; inhibition at 5 µM ([5]; 5 μM, 21 min preincubation): 0%
23 | CC(=N)NC/C(F)=C\CC[C@](C)(N)C(=O)O.Cl.Cl [Example HH, (2S,5E)-2-amino-2-methyl-6-fluoro-7-[(1-iminoethyl)amino]-5-heptenoic Acid, Dihydrochloride] | 0.4 µM | 0.4 mg/kg | 0.4 µM | 37 µM | 7.6 µM | –
24 | CC(=N)NC/C(F)=C\CC[C@H](N)C(=O)O [Example A, (2S,5E)-2-amino-6-fluoro-7-[(1-iminoethyl)amino]-5-heptenoic Acid, Dihydrochloride, Monohydrate] | 0.1 µM | < 0.1 mg/kg | – | – | – | ED50 ([2]; Dihydrochloride, Monohydrate): <0.1 mg/kg
